Legend:
Experiment in all cases: relative viability (nuclei count vs DMSO), 5 days (fraction); higher = more cells survive
UMC-11 = tested on: UMC-11
In short: (§1)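 Values are medians from duplicate plates. Each reflects relative viability, defined as the nuclei count of treated wells over that of vehicle wells. Lung cancer cell lines in 1536-well plates were pin-tool dosed one day after seeding with one drug alone or with a fixed anchor-drug dose plus five library-drug doses (not always all listed) in √10 steps, then fixed, stained and imaged at 4× after 5 days.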

NCI-H1755 = tested on: NCI-H1755
In short: as §1

NCI-H2347 = tested on: NCI-H2347
In short: as §1

NCI-H2228 = tested on: NCI-H2228
In short: as §1

HCC-366 = tested on: HCC-366
In short: as §1

LCLC-103H = tested on: LCLC-103H
In short: as §1

SK-MES-1 = tested on: SK-MES-1
In short: as §1

NCI-H1792 = tested on: NCI-H1792
In short: as §1

NCI-H1993 = tested on: NCI-H1993
In short: as §1

SW 1573 = tested on: SW 1573
In short: as §1

NCI-H650 = tested on: NCI-H650
In short: as §1

NCI-H1975 = tested on: NCI-H1975
In short: as §1

HCC-827 = tested on: HCC-827
In short: as §1

NCI-H23 = tested on: NCI-H23
In short: as §1

RERF-LC-KJ = tested on: RERF-LC-KJ
In short: as §1

NCI-H2342 = tested on: NCI-H2342
In short: as §1

NCI-H2170 = tested on: NCI-H2170
In short: as §1

NCI-H1915 = tested on: NCI-H1915
In short: as §1

NCI-H1734 = tested on: NCI-H1734
In short: as §1

SK-LU-1 = tested on: SK-LU-1
In short: as §1

LC-2-ad = tested on: LC-2-ad
In short: as §1

NCI-H1355 = tested on: NCI-H1355
In short: as §1

A-427 = tested on: A-427
In short: as §1

## CCNC(=O)c1noc(-c2cc(C(C)C)c(O)cc2O)c1-c1ccc(CN2CCOCC2)cc1 [Luminespib] + COc1cccc2cc(-c3nc([C@H]4CC[C@H](C(=O)O)CC4)n4ncnc(N)c34)[nH]c12 [OSI-027] (partner 0.5 µM)
UMC-11; first compound 0.002 µM
  relative viability: 0.538
UMC-11; first compound 0.006325 µM
  relative viability: 0.42
UMC-11; first compound 0.02 µM
  relative viability: 0.303
UMC-11; first compound 0.06325 µM
  relative viability: 0.224
UMC-11; first compound 0.2 µM
  relative viability: 0.207
NCI-H1755; first compound 0.002 µM
  relative viability: 0.768
NCI-H1755; first compound 0.006325 µM
  relative viability: 0.707
NCI-H1755; first compound 0.02 µM
  relative viability: 0.626
NCI-H1755; first compound 0.06325 µM
  relative viability: 0.206
NCI-H1755; first compound 0.2 µM
  relative viability: 0.113
NCI-H2347; first compound 0.002 µM
  relative viability: 0.414
NCI-H2347; first compound 0.006325 µM
  relative viability: 0.355
NCI-H2347; first compound 0.02 µM
  relative viability: 0.41
NCI-H2347; first compound 0.06325 µM
  relative viability: 0.185
NCI-H2347; first compound 0.2 µM
  relative viability: 0.227
NCI-H2228; first compound 0.002 µM
  relative viability: 0.576
NCI-H2228; first compound 0.006325 µM
  relative viability: 0.459
NCI-H2228; first compound 0.02 µM
  relative viability: 0.116
NCI-H2228; first compound 0.06325 µM
  relative viability: 0.109
NCI-H2228; first compound 0.2 µM
  relative viability: 0.0698
HCC-366; first compound 0.002 µM
  relative viability: 1.11
HCC-366; first compound 0.006325 µM
  relative viability: 0.832
HCC-366; first compound 0.02 µM
  relative viability: 0.698
HCC-366; first compound 0.06325 µM
  relative viability: 0.0495
HCC-366; first compound 0.2 µM
  relative viability: 0.0391
LCLC-103H; first compound 0.002 µM
  relative viability: 0.457
LCLC-103H; first compound 0.006325 µM
  relative viability: 0.471
LCLC-103H; first compound 0.02 µM
  relative viability: 0.35
LCLC-103H; first compound 0.06325 µM
  relative viability: 0.503
LCLC-103H; first compound 0.2 µM
  relative viability: 0.383
SK-MES-1; first compound 0.002 µM
  relative viability: 0.609
SK-MES-1; first compound 0.006325 µM
  relative viability: 0.486
SK-MES-1; first compound 0.02 µM
  relative viability: 0.2
SK-MES-1; first compound 0.06325 µM
  relative viability: 0.11
SK-MES-1; first compound 0.2 µM
  relative viability: 0.131
NCI-H1792; first compound 0.002 µM
  relative viability: 0.637
NCI-H1792; first compound 0.006325 µM
  relative viability: 0.618
NCI-H1792; first compound 0.02 µM
  relative viability: 0.509
NCI-H1792; first compound 0.06325 µM
  relative viability: 0.26
NCI-H1792; first compound 0.2 µM
  relative viability: 0.229
NCI-H1993; first compound 0.002 µM
  relative viability: 0.598
NCI-H1993; first compound 0.006325 µM
  relative viability: 0.545
NCI-H1993; first compound 0.02 µM
  relative viability: 0.562
NCI-H1993; first compound 0.06325 µM
  relative viability: 0.457
NCI-H1993; first compound 0.2 µM
  relative viability: 0.389
SW 1573; first compound 0.002 µM
  relative viability: 0.633
SW 1573; first compound 0.006325 µM
  relative viability: 0.549
SW 1573; first compound 0.02 µM
  relative viability: 0.199
SW 1573; first compound 0.06325 µM
  relative viability: 0.0962
SW 1573; first compound 0.2 µM
  relative viability: 0.09
NCI-H650; first compound 0.002 µM
  relative viability: 0.477
NCI-H650; first compound 0.006325 µM
  relative viability: 0.545
NCI-H650; first compound 0.02 µM
  relative viability: 0.378
NCI-H650; first compound 0.06325 µM
  relative viability: 0.368
NCI-H650; first compound 0.2 µM
  relative viability: 0.109
NCI-H1975; first compound 0.002 µM
  relative viability: 0.746
NCI-H1975; first compound 0.006325 µM
  relative viability: 0.677
NCI-H1975; first compound 0.02 µM
  relative viability: 0.187
NCI-H1975; first compound 0.06325 µM
  relative viability: 0.0795
NCI-H1975; first compound 0.2 µM
  relative viability: 0.0958
HCC-827; first compound 0.002 µM
  relative viability: 0.795
HCC-827; first compound 0.006325 µM
  relative viability: 0.725
HCC-827; first compound 0.02 µM
  relative viability: 0.543
HCC-827; first compound 0.06325 µM
  relative viability: 0.354
HCC-827; first compound 0.2 µM
  relative viability: 0.126
NCI-H23; first compound 0.002 µM
  relative viability: 0.503
NCI-H23; first compound 0.006325 µM
  relative viability: 0.508
NCI-H23; first compound 0.02 µM
  relative viability: 0.322
NCI-H23; first compound 0.06325 µM
  relative viability: 0.133
NCI-H23; first compound 0.2 µM
  relative viability: 0.136
RERF-LC-KJ; first compound 0.002 µM
  relative viability: 0.584
RERF-LC-KJ; first compound 0.006325 µM
  relative viability: 0.536
RERF-LC-KJ; first compound 0.02 µM
  relative viability: 0.346
RERF-LC-KJ; first compound 0.06325 µM
  relative viability: 0.207
RERF-LC-KJ; first compound 0.2 µM
  relative viability: 0.195
NCI-H2342; first compound 0.002 µM
  relative viability: 0.623
NCI-H2342; first compound 0.006325 µM
  relative viability: 0.586
NCI-H2342; first compound 0.02 µM
  relative viability: 0.545
NCI-H2342; first compound 0.06325 µM
  relative viability: 0.569
NCI-H2342; first compound 0.2 µM
  relative viability: 0.397
NCI-H2170; first compound 0.002 µM
  relative viability: 0.739
NCI-H2170; first compound 0.006325 µM
  relative viability: 0.698
NCI-H2170; first compound 0.02 µM
  relative viability: 0.488
NCI-H2170; first compound 0.06325 µM
  relative viability: 0.23
NCI-H2170; first compound 0.2 µM
  relative viability: 0.173
NCI-H1915; first compound 0.002 µM
  relative viability: 0.596
NCI-H1915; first compound 0.006325 µM
  relative viability: 0.502
NCI-H1915; first compound 0.02 µM
  relative viability: 0.517
NCI-H1915; first compound 0.06325 µM
  relative viability: 0.243
NCI-H1915; first compound 0.2 µM
  relative viability: 0.0689
NCI-H1734; first compound 0.002 µM
  relative viability: 0.538
NCI-H1734; first compound 0.006325 µM
  relative viability: 0.555
NCI-H1734; first compound 0.02 µM
  relative viability: 0.352
NCI-H1734; first compound 0.06325 µM
  relative viability: 0.168
NCI-H1734; first compound 0.2 µM
  relative viability: 0.156
SK-LU-1; first compound 0.002 µM
  relative viability: 0.356
SK-LU-1; first compound 0.006325 µM
  relative viability: 0.201
SK-LU-1; first compound 0.02 µM
  relative viability: 0.136
SK-LU-1; first compound 0.06325 µM
  relative viability: 0.0733
SK-LU-1; first compound 0.2 µM
  relative viability: 0.0594
LC-2-ad; first compound 0.002 µM
  relative viability: 0.806
LC-2-ad; first compound 0.006325 µM
  relative viability: 0.822
LC-2-ad; first compound 0.02 µM
  relative viability: 0.569
LC-2-ad; first compound 0.06325 µM
  relative viability: 0.259
LC-2-ad; first compound 0.2 µM
  relative viability: 0.28
NCI-H1355; first compound 0.002 µM
  relative viability: 0.39
NCI-H1355; first compound 0.006325 µM
  relative viability: 0.377
NCI-H1355; first compound 0.02 µM
  relative viability: 0.277
NCI-H1355; first compound 0.06325 µM
  relative viability: 0.163
NCI-H1355; first compound 0.2 µM
  relative viability: 0.148
A-427; first compound 0.002 µM
  relative viability: 0.462
A-427; first compound 0.006325 µM
  relative viability: 0.396
A-427; first compound 0.02 µM
  relative viability: 0.366
A-427; first compound 0.06325 µM
  relative viability: 0.158
A-427; first compound 0.2 µM
  relative viability: 0.121

Source: the supplement of paper PMC10307832
